In experiment [1] the test system is TNFα production in LPS-stimulated human monocytes. Description: Cot Monocyte TNFα Cell Based Assay. The settings on record: read-out: EC50 TNF. Summed up:
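5,000 cells/well; cmpd 1 h, 37 °C, 0.5% DMSO final; LPS 50 pg/ml, 4 h, 37 °C; media TNFα by HTRF sandwich (cryptate/XL665), RT overnight; % control vs unstimulated/stimulated wells.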

Experiment [2] concerns the target T1, human Cot catalytic domain (30-397 amino acids) (Homo sapiens, UniProt P41279).
T1 construct: Purified recombinant human Cot catalytic domain (30-397 amino acids) was purchased from Cama Biosciences; purchased Cama Biosciences (so in the source)
Description: High Throughput Cot Biochemical Assay (KinEASE TR-FRET). The settings on record: read-out: IC50 HTRF. Summed up:
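First, purified human Cot (aa 30-397) at 5 nM phosphorylates an XL665-labeled STK3 peptide (1 μM) at 400 μM ATP, pH 7.0, 0.1% DMSO. Then a europium-conjugated phospho-specific antibody binds the product, giving the TR-FRET signal.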

Where [3] appears, read: Homo sapiens, Monocyte, TNFα in LPS-stimulated human monocytes.
Where [4] appears, read: Cot biochemical HTRF (KinEASE TR-FRET) assay.
[5] abbreviates: Cot KinEASE TR-FRET (HTRF) biochemical assay, 400 μM ATP.
Setting [6] is: Cot KinEASE TR-FRET, 400 μM ATP.

Like-named read-outs stand apart in the source and are kept apart here. Some results are limits rather than exact numbers.

T1 sequence (P41279 30-397): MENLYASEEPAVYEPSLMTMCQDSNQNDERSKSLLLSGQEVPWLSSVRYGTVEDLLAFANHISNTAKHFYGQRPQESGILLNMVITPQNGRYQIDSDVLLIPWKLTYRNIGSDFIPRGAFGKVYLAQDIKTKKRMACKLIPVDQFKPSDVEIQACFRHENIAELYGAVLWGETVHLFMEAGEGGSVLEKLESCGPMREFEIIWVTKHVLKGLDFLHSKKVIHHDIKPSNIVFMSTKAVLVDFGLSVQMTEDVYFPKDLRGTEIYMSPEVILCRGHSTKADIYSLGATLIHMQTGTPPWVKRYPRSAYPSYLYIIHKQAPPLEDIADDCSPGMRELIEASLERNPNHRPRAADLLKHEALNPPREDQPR

As for `Cn1cc(C(Nc2cc(Cl)c3ncc(C#N)c(Nc4ccc(F)c(Cl)c4)c3c2)c2ccc(F)cc2)nn1` (centres unmarked) [Example 882, 8-chloro-4-((3-chloro-4-fluorophenyl)amino)-6-(((4-fluorophenyl)(1-methyl-1H-1,2,3-triazol-4-yl)methyl)amino)quinoline-3-carbonitrile], the EC50 in experiment [1] (setting [3]) stood at 321 nM. Moreover, the half-maximal inhibitory concentration (IC50) in experiment [2] (setting [4]) worked out at 20 nM.
`N#Cc1cnc2c(Cl)cc(N[C@@H](c3ccccc3)c3cn([C@@H]4CCNC[C@@H]4F)nn3)cc2c1Nc1ccc(F)c(Cl)c1` [Example 685, 8-chloro-4-((3-chloro-4-fluorophenyl)amino)-6-(((S)-(1-((3S,4R)-3-fluoropiperidin-4-yl)-1H-1,2,3-triazol-4-yl)(phenyl)methyl)amino) quinoline-3-carbonitrile]: in experiment [1] (setting [3]), the EC50 came to 359 nM. Also, the IC50 in experiment [2] (setting [4]) came out at 16 nM.
With `Cn1cnc(C(Nc2cc(Cl)c3ncc(C#N)c(Nc4ccc(F)c(Cl)c4)c3c2)c2ccc(F)cc2)c1` (centres unmarked) [Example 887, 8-chloro-4-((3-chloro-4-fluorophenyl)amino)-6-(((4-fluorophenyl)(1-methyl-1H-imidazol-4-yl)methyl)amino)quinoline-3-carbonitrile], in experiment [1] (setting [3]), the EC50 was found to be 1890 nM. Moreover, the IC50 in experiment [2] (setting [4]) was determined as 70 nM.
Turning to `CC(C)n1cc([C@@H](Nc2cc(Cl)c3ncc(C#N)c(N[C@H](CC#N)c4ccccc4)c3c2)c2ccc(F)cc2)nn1` [Example 305, 8-chloro-4-(((R)-2-cyano-1-phenylethyl)amino)-6-(((S)-(4-fluorophenyl)(1-isopropyl-1H-1,2,3-triazol-4-yl)methyl)amino)quinoline-3-carbonitrile], in experiment [1] (setting [3]), the EC50 was determined as 78 nM. In addition, the IC50 in experiment [2] (setting [5]) was found to be 4 nM.
For the molecule `[2H][C@](Nc1cc(-c2cncnc2)c2ncc(C#N)c(NCC(C)(C)C)c2c1)(c1ccc(F)cc1)c1cn(C2CC2)nn1` [Compound 12], the EC50 in experiment [1] (setting [3]) stood at 205 nM. Further, the concentration for half-maximal inhibition (IC50) in experiment [2] (setting [5]) turned out to be 20 nM.
Turning to `N#Cc1cnc2c(F)cc(N[C@@H](c3ccc(Cl)cc3)c3cn(C4CCN(C5COC5)CC4)nn3)cc2c1Nc1ccc(F)c(Cl)c1` [Example 708, (S)-4-((3-chloro-4-fluorophenyl)amino)-6-(((4-chlorophenyl)(1-(1-(oxetan-3-yl)piperidin-4-yl)-1H-1,2,3-triazol-4-yl)methyl)amino)-8-fluoroquinoline-3-carbonitrile], the EC50 in experiment [1] (setting [3]) turned out to be 533 nM. Besides, in experiment [2] (setting [4]), the IC50 was determined as 103 nM.
Regarding `[2H][C@](Nc1cc(C#N)c2ncc(C#N)c(NC3CCCC3(C)C)c2c1)(c1ccc(F)cc1)c1cn(C2(C(F)(F)F)CC2)nn1` (stereo partly drawn) [Example 1018, 4-((2,2-dimethylcyclopentyl)amino)-6-(((S)-(4-fluorophenyl)(1-(1-(trifluoromethyl)cyclopropyl)-1H-1,2,3-triazol-4-yl)methyl-d)amino)quinoline-3,8-dicarbonitrile], in experiment [1] (Homo sapiens, Monocyte, LPS-stimulated human monocytes, TNFα TR-FRET), the EC50 is 326 nM. Further, the IC50 in experiment [2] (setting [6]) came out at 22 nM.
Turning to `CC[C@@H](Nc1c(C#N)cnc2c(Cl)cc(NC(c3ccc(F)cc3)c3nn[nH]c3OC)cc12)c1ccccc1` (stereo partly drawn) [Example 434, 8-chloro-6-(((4-fluorophenyl)(5-methoxy-1H-1,2,3-triazol-4-yl)methyl)amino)-4-(((R)-1-phenylpropyl)amino)quinoline-3-carbonitrile], the EC50 in experiment [1] (setting [3]) was found to be 2380 nM. For the same molecule, in experiment [2] (setting [4]), the half-inhibitory concentration (IC50) turned out to be 2760 nM.
Turning to `[2H][C@](Nc1cc(Cl)c2ncc(C#N)c(NN(CC)c3ccccc3)c2c1)(c1ccc(F)cc1)c1cn(C2CC2)nn1` [Example 222, (S)-8-chloro-6-(((1-cyclopropyl-1H-1,2,3-triazol-4-yl)(4-fluorophenyl)methyl-d)amino)-4-(2-ethyl-2-phenylhydrazinyl)quinoline-3-carbonitrile], the EC50 in experiment [1] (setting [3]) is > 10000 nM. Also, the half-inhibitory concentration (IC50) in experiment [2] (setting [5]) amounted to 8200 nM.
Turning to `[2H][C@](Nc1cc(C#C)c2ncc(C#N)c(N[C@H](CC)c3ccccc3)c2c1)(c1ccc(F)cc1)c1cn(C2CC2)nn1` [Compound 30], the EC50 in experiment [1] (setting [3]) was > 10000 nM. Further, the IC50 in experiment [2] (setting [5]) amounted to 7210 nM.
On to `CC(C)(C)N1CCC(n2cc([C@@H](Nc3cc(Cl)c4ncc(C#N)c(NN5CCCCCC5)c4c3)c3ccccc3)nn2)CC1` [Example 604, (S)-4-(azepan-1-ylamino)-6-(((1-(1-(tert-butyl)piperidin-4-yl)-1H-1,2,3-triazol-4-yl)(phenyl)methyl)amino)-8-chloroquinoline-3-carbonitrile], for which, in experiment [1] (setting [3]), the EC50 is 3040 nM. Further, the IC50 in experiment [2] (setting [4]) amounted to 156 nM.
As to `N#Cc1ccc([C@H](Nc2cc(Cl)c3ncc(C#N)c(Nc4cnc(F)c(F)c4)c3c2)c2c[nH]nn2)cc1` [Example 423, (S)-8-chloro-6-(((4-cyanophenyl)(1H-1,2,3-triazol-4-yl)methyl)amino)-4-((5,6-difluoropyridin-3-yl)amino)quinoline-3-carbonitrile], the EC50 in experiment [1] (setting [3]) came to 1260 nM. In experiment [2] (setting [4]), the IC50 is 17 nM.
For `Cc1c(C#N)cccc1[C@H](Nc1cc(C#N)c2ncc(C#N)c(NCC(C)(C)C(F)(F)F)c2c1)c1cn(C2(C(F)F)CC2)nn1` [Example 1126, (S)-6-(((3-cyano-2-methylphenyl)(1-(1-(difluoromethyl)cyclopropyl)-1H-1,2,3-triazol-4-yl)methyl)amino)-4-((3,3,3-trifluoro-2,2-dimethylpropyl)amino)quinoline-3,8-dicarbonitrile], the EC50 in experiment [1] (LPS-stimulated human monocytes, TNFα TR-FRET) was 66 nM. In experiment [2] (setting [6]), the 50% inhibitory concentration (IC50) came to 5 nM.
In the case of `CC[C@@H](Nc1c(C#N)cnc2c(Cl)cc(N[C@@H](c3cccc(-c4ccccc4)c3)c3cn(C4CC4)nn3)cc12)c1ccccc1` [Example 94, 6-(((S)-[1,1'-biphenyl]-3-yl(1-cyclopropyl-1H-1,2,3-triazol-4-yl)methyl)amino)-8-chloro-4-(((R)-1-phenylpropyl)amino) quinoline-3-carbonitrile], the EC50 in experiment [1] (setting [3]) was > 1000 nM. The IC50 in experiment [2] (setting [5]) turned out to be 12 nM.
The matching figures for `[2H][C@](Nc1cc(Cl)c2ncc(C#N)c(NC34CC5CC(CC(C5)C3)C4)c2c1)(c1ccc(F)cc1)c1cn(C2CC2)nn1` [Example 245, 4-(((3R,5R,7R)-adamantan-1-yl)amino)-8-chloro-6-(((S)-(1-cyclopropyl-1H-1,2,3-triazol-4-yl)(4-fluorophenyl)methyl-d)amino)quinoline-3-carbonitrile]: 557 nM and 46 nM.
For the molecule `CC(=O)N(C)c1cccc([C@H](Nc2cc(Cl)c3ncc(C#N)c(Nc4cnc(F)c(F)c4)c3c2)c2c[nH]nn2)c1` [Example 496, (S)-N-(3-(((8-chloro-3-cyano-4-((5,6-difluoropyridin-3-yl)amino)quinolin-6-yl)amino)(1H-1,2,3-triazol-4-yl)methyl)phenyl)-N-methylacetamide], the EC50 in experiment [1] (setting [3]) was 1840 nM. In addition, in experiment [2] (setting [4]), the IC50 came out at 4 nM.
For the molecule `[2H][C@](Nc1cc(F)c2ncc(C#N)c(NCC(C)(C)C)c2c1)(c1cccc(C#N)c1)c1cn(C2CC2)nn1` [Example 256, (S)-6-(((3-cyanophenyl)(1-cyclopropyl-1H-1,2,3-triazol-4-yl)methyl-d)amino)-8-fluoro-4-(neopentylamino)quinoline-3-carbonitrile], the EC50 in experiment [1] (setting [3]) was found to be 121 nM. The IC50 in experiment [2] (setting [5]) is 3 nM.
Take `[2H][C@](Nc1cc(Cl)c2ncc(C#N)c(N[C@@H](CO)C(C)(C)C)c2c1)(c1ccc(F)cc1)c1cn(C2CC2)nn1` [Example 186, 8-chloro-6-(((S)-(1-cyclopropyl-1H-1,2,3-triazol-4-yl)(4-fluorophenyl)methyl-d)amino)-4-(((R)-1-hydroxy-3,3-dimethylbutan-2-yl)amino)quinoline-3-carbonitrile]: in experiment [1] (setting [3]), the EC50 was > 10000 nM. In experiment [2] (setting [5]), the IC50 is > 10000 nM.
On to `CC(C)(C)N1CCC(n2cc([C@@H](Nc3cc(Cl)c4ncc(C#N)c(Nc5c(F)ccc(Cl)c5F)c4c3)c3ccc(Cl)cc3)nn2)CC1` [Example 694, (S)-6-(((1-(1-(tert-butyl)piperidin-4-yl)-1H-1,2,3-triazol-4-yl)(4-chlorophenyl)methyl)amino)-8-chloro-4-((3-chloro-2,6-difluorophenyl)amino)quinoline-3-carbonitrile], for which the EC50 in experiment [1] (setting [3]) turned out to be 843 nM. In experiment [2] (setting [4]), the IC50 was determined as 20 nM.
Regarding `[2H][C@](Nc1cc(Cl)c2ncc(C#N)c(Nc3cccc(Cl)c3Cl)c2c1)(c1ccc(F)cc1)c1cn(C2CC2)nn1` [Example 206, (S)-8-chloro-6-(((1-cyclopropyl-1H-1,2,3-triazol-4-yl)(4-fluorophenyl)methyl-d)amino)-4-((2,3-dichlorophenyl)amino)quinoline-3-carbonitrile], the concentration giving a half-maximal response (EC50) in experiment [1] (setting [3]) is 547 nM. The IC50 in experiment [2] (setting [5]) turned out to be 52 nM.
The matching figures for `N#Cc1cnc2c(Cl)cc(N[C@@H](c3ccc(F)cc3)c3cn(-c4cccnc4)nn3)cc2c1Nc1cnc(F)c(F)c1` [Example 389, (S)-8-chloro-4-((5,6-difluoropyridin-3-yl)amino)-6-(((4-fluorophenyl) (1-(pyridin-3-yl)-1H-1,2,3-triazol-4-yl)methyl)amino)quinoline-3-carbonitrile]: 817 nM and 37 nM.
Regarding `CC(C)n1cc([C@@H](Nc2cc(Cl)c3ncc(C#N)c(NC(CC#N)c4ccccc4)c3c2)c2ccc(F)cc2)nn1` (stereo partly drawn) [Example 362, 8-chloro-4-((2-cyano-1-phenylethyl)amino)-6-(((S)-(4-fluorophenyl)(1-isopropyl-1H-1,2,3-triazol-4-yl)methyl)amino)quinoline-3-carbonitrile], in experiment [1] (setting [3]), the EC50 came out at 83 nM. For the same molecule, in experiment [2] (setting [5]), the IC50 turned out to be 5 nM.

The EC50 is the midpoint of the concentration-response curve. As usually defined, the IC50 is the concentration needed to halve the response being measured.

These data come from patent publication US10316017B2, “COT modulators and methods of use thereof” (Gilead Sciences, Inc., priority 2015, dated 2019).
